Experimental data reported in ChEMBL document CHEMBL3045997, “Some remarkable reactions of the diterpene eriocephalin: Neo-clerodane derivatives with insect antifeedant activity” (1994).

Legend:
Spodoptera littoralis [1] = assay: Antifeedant activity against Spodoptera littoralis larvae fed on compound-treated disk at 100 ppm after 18 hr by two-choice assay; format: functional
Spodoptera littoralis [2] = assay: Antifeedant activity against Spodoptera littoralis larvae fed on compound-treated disk after 18 hr by two-choice assay; format: functional

| Structure (SMILES) | AFI (Spodoptera littoralis [1]) [%] | AFC50 (Spodoptera littoralis [2]) [ppm] |
| --- | --- | --- |
| CC(=O)O[C@@H]1O[C@H](c2ccoc2)C[C@]12[C@H](C)[C@@H](OC(C)=O)C(=O)[C@H]1[C@@H]2CCC[C@@]12CO[C@H](C)O2 | -5.4 | >1000 |
| CC(=O)O[C@@H]1O[C@H](c2ccoc2)C[C@]12[C@H](C)[C@@H](OC(C)=O)C(=O)[C@H]1[C@@H]2CCC[C@@]12CO[C@@H](C)O2 | 34.1 | >390 |
| CC(=O)OC[C@]12[C@H](CCC[C@]13CO3)[C@@]1(C[C@@H](c3ccoc3)O[C@H]1OC(C)=O)[C@H](C)[C@@H](OC(C)=O)[C@@H]2O | -21.1 | >1000 |
| CC(=O)OC[C@]12[C@H](CCC[C@]13CO3)[C@@]1(C[C@@H](c3ccoc3)O[C@@H]1OC(C)=O)[C@H](C)[C@@H](OC(C)=O)[C@@H]2OC(C)=O | 26.7 | >1000 |
| CC(=O)OC[C@]12[C@H](CCC[C@]13CO3)[C@@]1(C[C@@H](c3ccoc3)O[C@@H]1O)[C@H](C)[C@@H](OC(C)=O)[C@@H]2OC(C)=O | -14.3 | >1000 |
| CC(=O)OC[C@]12[C@H](CCC[C@]13CO3)[C@@]1(C[C@@H](c3ccoc3)O[C@@H]1O)[C@H](C)[C@@H](OC(C)=O)[C@@H]2O | 5.4 | >1000 |
| CC(=O)OC[C@]12[C@H](CCC[C@]13CO3)[C@@]1(C[C@@H](c3ccoc3)O[C@@H]1O)[C@H](C)[C@@H](O)[C@@H]2OC(C)=O | 54 | 39 |
| CC(=O)OC[C@]12[C@H](CCC[C@]13CO3)[C@@]1(C[C@@H](c3ccoc3)O[C@@H]1O)[C@H](C)[C@@H](O)[C@@H]2O | 30.4 | 300 |
| CC(=O)OC[C@]12C(=O)[C@H](O)[C@@H](C)[C@]3(C[C@@H](c4ccoc4)O[C@H]3OC(C)=O)[C@H]1CCC[C@]21CO1 [ERIOCEPHALIN] | 5.5 | >1000 |
